Patent US12396948B2, “Pharmaceutical compositions for the treatment of ophthalmic conditions” (Rhodes Technologies, priority 2017, dated 2025)
Marks after values point to notes of the source that are not given here.

Tests used:
Assay type in all cases: physicochemical
[1] = Assay/impurities of AE14B trial batch #1 (Examples 17 and 19); details: API as dispensed
[2] = AE14B trial batch #3 assay/impurities during process (Examples 22 and 23)
[3] = Forced degradation of API, drug product emulsion and placebo (Examples 30 and 32)
Procedure: In this example, a forced degradation study was performed on the API, drug product emulsion, and a placebo. Only w/w % impurities are presented.
In this example, an additional forced degradation study was performed. Harsh conditions for oxidation (H2O2 concentration increased from 1% to 3%, exposure increased from 30 min to 2 hr) and conditions for photolytic degradation (exposure decreased from 24 hr to 40 min) were used in an additional forced degradation study.

[4] = Chemical analysis of AE10C Trial #1 in-process samples and finished product (Example 36); details: Dronabinol AE10C Formulation, Trial #1 samples
[5] = Oxidation 1% H2O2 0.5 hr, 1st study
[6] = Oxidation 3% H2O2 2 hr, 2nd study

CCCCCc1cc(O)c2c(c1)OC(C)(C)[C@@H]1CCC(C)=C[C@@H]21 [API]
Impurity CBN [1]: 0.18 % Area
THC % Area [1]: 99.84 % Area
Total impurities [1]: 0.2 % Area
THC Assay ([1]; calculated using 48.4% based on the certificate of analysis): 96.63* % LC
% Area (THC from Imp) ([2]; API Sample): 99.6 % Area
% Area of Impurities: CBN ([2]; API Sample): 0.18 % Area
% Area of Impurities: RRT 0.46 ([2]; API Sample): <0.1 % Area
% Area of Impurities: RRT 0.93 ([2]; API Sample): 0.18 % Area
% Area of Impurities: Total ([2]; API Sample): 0.4 % Area
% w/w of Impurities: CBN ([2]; API Sample): 0.15 % w/w
% w/w of Impurities: RRT 0.46 ([2]; API Sample): <0.1 % w/w
% w/w of Impurities: RRT 0.93 ([2]; API Sample): 0.15 % w/w
% w/w of Impurities: Total ([2]; API Sample): 0.3 % w/w
API % w/w ([2]; API Sample): 38.29 % w/w
Assay % LC ([2]; API Sample): 79.12 % LC
Conc. ([2]; API Sample): 38.29 % w/w
Impurity CBN ([2]; API Sample): 0.18 % Area
Impurity RRT 0.93 ([2]; API Sample): 0.18 % Area
Osmolarity (mOsm/L) ([2]; API Sample): 228 mOsm/L
Total impurities ([2]; API Sample): 0.4 % Area
pH ([2]; API Sample): 6.60
Osmolarity ([2]; API Sample column): 228 mOsm/L
pH ([2]; API Sample column): 6.60
total impurities excluding late eluting excipient impurities (RRT 1.22 and later) ([2]; Batch #3): 0.4 % area
API % w/w ([2]; Repeated API Sample): 44.2 % w/w
Assay % LC ([2]; Repeated API Sample): 91.29 % LC
% Area ([3]; Acid 24 hr, 1st study): 96.0 % Area
% w/w Impurities CBN ([3]; Acid 24 hr, 1st study): 1.54 % w/w
% w/w Impurities RRT 0.30 ([3]; Acid 24 hr, 1st study): 0.08 % w/w
% w/w Impurities RRT 0.40 ([3]; Acid 24 hr, 1st study): 0.71 % w/w
% w/w Impurities RRT 0.46 ([3]; Acid 24 hr, 1st study): 0.22 % w/w
% w/w Impurities RRT 0.49 ([3]; Acid 24 hr, 1st study): 0.37 % w/w
% w/w Impurities RRT 0.56 ([3]; Acid 24 hr, 1st study): 0.18 % w/w
% w/w Impurities RRT 0.62 ([3]; Acid 24 hr, 1st study): 0.37 % w/w
% w/w Impurities Total ([3]; Acid 24 hr, 1st study): 3.5 % w/w
Assay % LC ([3]; Acid 24 hr, 1st study): 83.6 % LC
% Area ([3]; Base 24 hr, 1st study): 95.3 % Area
% w/w Impurities CBN ([3]; Base 24 hr, 1st study): 1.19 % w/w
% w/w Impurities RRT 0.30 ([3]; Base 24 hr, 1st study): 0.13 % w/w
% w/w Impurities RRT 0.40 ([3]; Base 24 hr, 1st study): 1.72 % w/w
% w/w Impurities RRT 0.46 ([3]; Base 24 hr, 1st study): 0.30 % w/w
% w/w Impurities RRT 0.56 ([3]; Base 24 hr, 1st study): 0.42 % w/w
% w/w Impurities RRT 0.62 ([3]; Base 24 hr, 1st study): 0.31 % w/w
% w/w Impurities Total ([3]; Base 24 hr, 1st study): 4.1 % w/w
Assay % LC ([3]; Base 24 hr, 1st study): 82.9 % LC
% Area ([3]; Control, 1st study): 97.5 % Area
% w/w Impurities CBD ([3]; Control, 1st study): 0.52 % w/w
% w/w Impurities CBN ([3]; Control, 1st study): 1.41 % w/w
% w/w Impurities RRT 0.46 ([3]; Control, 1st study): 0.28 % w/w
% w/w Impurities Total ([3]; Control, 1st study): 2.2 % w/w
Assay % LC ([3]; Control, 1st study): 85.8 % LC
% Area ([3]; Control, 2nd study): 97.4 % Area
% w/w Impurities CBD ([3]; Control, 2nd study): 0.58 % w/w
% w/w Impurities CBN ([3]; Control, 2nd study): 1.41 % w/w
% w/w Impurities RRT 0.46 ([3]; Control, 2nd study): 0.26 % w/w
% w/w Impurities Total ([3]; Control, 2nd study): 2.3 % w/w
Assay % LC ([3]; Control, 2nd study): 85.8 % LC
% Area [3, 5]: 97.5 % Area
% w/w Impurities CBN [3, 5]: 1.27 % w/w
% w/w Impurities RRT 0.46 [3, 5]: 0.25 % w/w
% w/w Impurities RRT 0.62 [3, 5]: 0.49 % w/w
% w/w Impurities Total [3, 5]: 2.0 % w/w
Assay % LC [3, 5]: 78.6 % LC
% Area [3, 6]: 97.0 % Area
% w/w Impurities CBD [3, 6]: 0.62 % w/w
% w/w Impurities CBN [3, 6]: 0.79 % w/w
% w/w Impurities RRT 0.46 [3, 6]: 0.29 % w/w
% w/w Impurities RRT 0.56 [3, 6]: 0.20 % w/w
% w/w Impurities RRT 0.93 [3, 6]: 0.65 % w/w
% w/w Impurities Total [3, 6]: 2.6 % w/w
Assay % LC [3, 6]: 83.7 % LC
% Area ([3]; Photolytic 40 min, 2nd study): 79.1 % Area
% w/w Impurities CBD ([3]; Photolytic 40 min, 2nd study): 8.20 % w/w
% w/w Impurities CBN ([3]; Photolytic 40 min, 2nd study): 1.00 % w/w
% w/w Impurities RRT 0.30 ([3]; Photolytic 40 min, 2nd study): 0.07 % w/w
% w/w Impurities RRT 0.44 ([3]; Photolytic 40 min, 2nd study): 0.68 % w/w
% w/w Impurities RRT 0.46 ([3]; Photolytic 40 min, 2nd study): 1.35 % w/w
% w/w Impurities RRT 0.52 ([3]; Photolytic 40 min, 2nd study): 1.56 % w/w
% w/w Impurities RRT 0.56 ([3]; Photolytic 40 min, 2nd study): 0.17 % w/w
% w/w Impurities RRT 0.70 ([3]; Photolytic 40 min, 2nd study): 0.62 % w/w
% w/w Impurities RRT 0.82 ([3]; Photolytic 40 min, 2nd study): 0.22 % w/w
% w/w Impurities RRT 1.35 ([3]; Photolytic 40 min, 2nd study): 0.21 % w/w
% w/w Impurities RRT 1.40 ([3]; Photolytic 40 min, 2nd study): 0.21 % w/w
% w/w Impurities RRT 1.45 ([3]; Photolytic 40 min, 2nd study): 0.52 % w/w
% w/w Impurities RRT 1.48 ([3]; Photolytic 40 min, 2nd study): 0.40 % w/w
% w/w Impurities Total ([3]; Photolytic 40 min, 2nd study): 15.2 % w/w
Assay % LC ([3]; Photolytic 40 min, 2nd study): 57.5 % LC
% Area ([3]; Photolytic 24 hr, 1st study): 11.3 % Area
% w/w Impurities CBN ([3]; Photolytic 24 hr, 1st study): 6.75 % w/w
% w/w Impurities RRT 0.39 ([3]; Photolytic 24 hr, 1st study): 0.79 % w/w
% w/w Impurities RRT 0.40 ([3]; Photolytic 24 hr, 1st study): 0.66 % w/w
% w/w Impurities RRT 0.46 ([3]; Photolytic 24 hr, 1st study): 4.05 % w/w
% w/w Impurities RRT 0.49 ([3]; Photolytic 24 hr, 1st study): 2.55 % w/w
% w/w Impurities RRT 0.62 ([3]; Photolytic 24 hr, 1st study): 1.45 % w/w
% w/w Impurities RRT 0.75 ([3]; Photolytic 24 hr, 1st study): 0.25 % w/w
% w/w Impurities RRT 0.82 ([3]; Photolytic 24 hr, 1st study): 0.49 % w/w
% w/w Impurities RRT 1.19 ([3]; Photolytic 24 hr, 1st study): 0.83 % w/w
% w/w Impurities RRT 1.45 ([3]; Photolytic 24 hr, 1st study): 0.07 % w/w
% w/w Impurities Total ([3]; Photolytic 24 hr, 1st study): 17.9 % w/w
Assay % LC ([3]; Photolytic 24 hr, 1st study): 2.3 % LC
Impurity Change CBD ([3]; Stress condition Acid): 2 (2: Increase in API)
Impurity Change RRT 0.40 ([3]; Stress condition Acid): 2 (2: Increase in API)
Impurity Change RRT 0.46 ([3]; Stress condition Acid): — (Blank cell: no effect)
Impurity Change RRT 0.62 ([3]; Stress condition Acid): 2 (2: Increase in API)
Impurity Change RRT 0.93 ([3]; Stress condition Acid): — (Blank cell: no effect)
Impurity Change CBD ([3]; Stress condition Base): 2 (2: Increase in API)
Impurity Change CBN ([3]; Stress condition Base): — (Blank cell: no effect)
Impurity Change RRT 0.40 ([3]; Stress condition Base): 2 (2: Increase in API)
Impurity Change RRT 0.46 ([3]; Stress condition Base): — (Blank cell: no effect)
Impurity Change RRT 0.62 ([3]; Stress condition Base): 2 (2: Increase in API)
Impurity Change RRT 0.93 ([3]; Stress condition Base): — (Blank cell: no effect)
Impurity Change CBD ([3]; Stress condition Oxidation): 2 (2: Increase in API)
Impurity Change CBN ([3]; Stress condition Oxidation): — (Blank cell: no effect)
Impurity Change RRT 0.40 ([3]; Stress condition Oxidation): — (Blank cell: no effect)
Impurity Change RRT 0.46 ([3]; Stress condition Oxidation): — (Blank cell: no effect)
Impurity Change RRT 0.62 ([3]; Stress condition Oxidation): 2 (2: Increase in API)
Impurity Change RRT 0.93 ([3]; Stress condition Oxidation): — (Blank cell: no effect)
Impurity Change CBD ([3]; Stress condition Photolytic): 2 (2: Increase in API)
Impurity Change CBN ([3]; Stress condition Photolytic): 2 (2: Increase in API)
Impurity Change RRT 0.40 ([3]; Stress condition Photolytic): 2 (2: Increase in API)
Impurity Change RRT 0.46 ([3]; Stress condition Photolytic): 2 (2: Increase in API)
Impurity Change RRT 0.62 ([3]; Stress condition Photolytic): 2 (2: Increase in API)
Impurity Change CBD ([3]; Stress condition Thermal): 2 (2: Increase in API)
Impurity Change CBN ([3]; Stress condition Thermal): 2 (2: Increase in API)
Impurity Change RRT 0.46 ([3]; Stress condition Thermal): 2 (2: Increase in API)
% Area ([3]; Thermal 24 hr, 1st study): 77.5 % Area
% w/w Impurities CBD ([3]; Thermal 24 hr, 1st study): 2.43 % w/w
% w/w Impurities CBN ([3]; Thermal 24 hr, 1st study): 9.03 % w/w
% w/w Impurities RRT 0.30 ([3]; Thermal 24 hr, 1st study): 0.15 % w/w
% w/w Impurities RRT 0.44 ([3]; Thermal 24 hr, 1st study): 0.47 % w/w
% w/w Impurities RRT 0.46 ([3]; Thermal 24 hr, 1st study): 0.56 % w/w
% w/w Impurities RRT 0.52 ([3]; Thermal 24 hr, 1st study): 0.40 % w/w
% w/w Impurities RRT 0.56 ([3]; Thermal 24 hr, 1st study): 0.22 % w/w
% w/w Impurities RRT 0.70 ([3]; Thermal 24 hr, 1st study): 0.29 % w/w
% w/w Impurities RRT 1.19 ([3]; Thermal 24 hr, 1st study): 0.54 % w/w
% w/w Impurities RRT 1.27 ([3]; Thermal 24 hr, 1st study): 0.26 % w/w
% w/w Impurities RRT 1.40 ([3]; Thermal 24 hr, 1st study): 0.50 % w/w
% w/w Impurities RRT 1.45 ([3]; Thermal 24 hr, 1st study): 0.34 % w/w
% w/w Impurities RRT 1.48 ([3]; Thermal 24 hr, 1st study): 0.14 % w/w
% w/w Impurities Total ([3]; Thermal 24 hr, 1st study): 15.3 % w/w
Assay % LC ([3]; Thermal 24 hr, 1st study): 52.8 % LC
Assay decrease ([3]; second study, photolytic degradation, 40 min light exposure): ~30%
Assay % LC [4]: 87.2 % LC
Impurity (% Area) CBD [4]: 0.62 % Area
Impurity (% Area) RRT 0.46 [4]: 0.19 % Area
Impurity (% Area) RRT 0.70 [4]: 0.52 % Area
Impurity (% Area) Total [4]: 1.3 % Area
Impurity (% w/w) CBN [4]: 0.55 % w/w
Impurity (% w/w) RRT 0.46 [4]: 0.17 % w/w
Impurity (% w/w) RRT 0.93 [4]: 0.46 % w/w
Impurity (% w/w) Total [4]: 1.2 % w/w
